# Source: PMC10380377 (International Journal of Molecular Sciences, 2023)
# Positions of bridges follow the written chain, without caps; N, C: chain ends. Residues, ends and D or L forms follow the SMILES beside them.
# Assays:
# human Kv1.6 = molecular target: T1, human Kv1.6 (Homo sapiens, UniProt P17658); test: cell-based; type: cell-based
# T1 construct: expressed in transfected cells; host or cells: Xenopus laevis oocytes injected with cRNA (pSGEM clone, T7 transcription)
# Kv10.1 potassium channel = type: cell-based, human
# human Kv11.1 [1] = molecular target: T2, human Kv11.1 (Homo sapiens, UniProt Q12809); test: in vitro; conditions: pH 7.2
# T2 sequence (Q12809 whole entry): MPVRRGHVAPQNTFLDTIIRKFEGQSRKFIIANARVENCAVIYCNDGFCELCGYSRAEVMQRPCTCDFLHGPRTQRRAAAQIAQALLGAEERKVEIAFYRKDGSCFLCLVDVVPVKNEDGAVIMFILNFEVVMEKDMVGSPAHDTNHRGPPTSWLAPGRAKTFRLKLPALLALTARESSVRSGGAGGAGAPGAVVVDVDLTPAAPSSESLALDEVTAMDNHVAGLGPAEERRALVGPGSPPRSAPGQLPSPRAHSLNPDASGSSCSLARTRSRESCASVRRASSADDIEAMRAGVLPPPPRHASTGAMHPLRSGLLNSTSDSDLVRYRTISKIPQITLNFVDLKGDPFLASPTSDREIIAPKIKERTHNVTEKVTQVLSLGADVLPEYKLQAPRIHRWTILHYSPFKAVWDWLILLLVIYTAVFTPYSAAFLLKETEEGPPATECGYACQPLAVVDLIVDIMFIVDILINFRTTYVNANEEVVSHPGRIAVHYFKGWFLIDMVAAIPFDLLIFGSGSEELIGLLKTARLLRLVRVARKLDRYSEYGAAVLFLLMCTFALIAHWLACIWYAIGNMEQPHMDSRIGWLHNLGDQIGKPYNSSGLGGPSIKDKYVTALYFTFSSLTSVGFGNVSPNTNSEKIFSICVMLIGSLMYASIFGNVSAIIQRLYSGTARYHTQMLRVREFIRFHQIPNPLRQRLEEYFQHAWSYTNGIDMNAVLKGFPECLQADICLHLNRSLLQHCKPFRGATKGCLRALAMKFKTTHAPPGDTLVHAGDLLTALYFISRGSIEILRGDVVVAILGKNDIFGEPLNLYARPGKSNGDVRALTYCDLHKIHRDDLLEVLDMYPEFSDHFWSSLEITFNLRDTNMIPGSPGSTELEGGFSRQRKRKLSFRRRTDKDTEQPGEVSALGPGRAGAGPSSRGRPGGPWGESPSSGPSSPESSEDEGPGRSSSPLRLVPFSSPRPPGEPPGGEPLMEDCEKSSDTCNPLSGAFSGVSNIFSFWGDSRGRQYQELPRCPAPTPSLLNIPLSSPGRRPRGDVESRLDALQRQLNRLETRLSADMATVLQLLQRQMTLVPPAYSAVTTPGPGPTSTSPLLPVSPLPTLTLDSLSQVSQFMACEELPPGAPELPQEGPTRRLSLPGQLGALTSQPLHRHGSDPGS
# human Kv11.1 [2] = molecular target: T2, human Kv11.1
# human Kv10.1 = molecular target: T3, human Kv10.1 (Homo sapiens, UniProt O95259); test: cell-based
# T3 construct: expressed in transfected cells; host or cells: Xenopus laevis oocytes injected with cRNA (pSGEM clone, T7 transcription)
# T3 sequence (O95259 1-989): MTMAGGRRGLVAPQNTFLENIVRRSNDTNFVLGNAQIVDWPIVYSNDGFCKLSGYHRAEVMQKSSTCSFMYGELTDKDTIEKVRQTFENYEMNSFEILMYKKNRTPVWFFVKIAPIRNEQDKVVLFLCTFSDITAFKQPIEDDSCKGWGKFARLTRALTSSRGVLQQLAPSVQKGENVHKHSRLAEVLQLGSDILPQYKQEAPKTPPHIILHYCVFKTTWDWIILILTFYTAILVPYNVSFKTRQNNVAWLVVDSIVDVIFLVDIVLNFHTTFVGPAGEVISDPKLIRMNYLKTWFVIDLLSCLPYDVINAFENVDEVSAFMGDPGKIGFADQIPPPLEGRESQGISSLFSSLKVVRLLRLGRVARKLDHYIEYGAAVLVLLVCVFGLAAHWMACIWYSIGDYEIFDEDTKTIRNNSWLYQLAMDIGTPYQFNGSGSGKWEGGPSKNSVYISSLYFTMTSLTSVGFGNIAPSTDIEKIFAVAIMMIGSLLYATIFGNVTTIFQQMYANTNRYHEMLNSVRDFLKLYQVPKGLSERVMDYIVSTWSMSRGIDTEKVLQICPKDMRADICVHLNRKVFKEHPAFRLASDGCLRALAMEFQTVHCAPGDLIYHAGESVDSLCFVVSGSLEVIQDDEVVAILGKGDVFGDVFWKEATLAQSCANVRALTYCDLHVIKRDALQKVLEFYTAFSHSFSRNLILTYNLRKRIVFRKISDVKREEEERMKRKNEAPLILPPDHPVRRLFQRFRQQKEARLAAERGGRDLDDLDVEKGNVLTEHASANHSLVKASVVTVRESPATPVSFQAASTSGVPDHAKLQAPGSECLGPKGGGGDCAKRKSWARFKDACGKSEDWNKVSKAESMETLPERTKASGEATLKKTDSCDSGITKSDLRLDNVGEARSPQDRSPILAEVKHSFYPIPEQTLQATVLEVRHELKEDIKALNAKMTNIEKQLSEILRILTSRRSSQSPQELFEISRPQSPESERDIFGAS
# T1 sequence (P17658 whole entry): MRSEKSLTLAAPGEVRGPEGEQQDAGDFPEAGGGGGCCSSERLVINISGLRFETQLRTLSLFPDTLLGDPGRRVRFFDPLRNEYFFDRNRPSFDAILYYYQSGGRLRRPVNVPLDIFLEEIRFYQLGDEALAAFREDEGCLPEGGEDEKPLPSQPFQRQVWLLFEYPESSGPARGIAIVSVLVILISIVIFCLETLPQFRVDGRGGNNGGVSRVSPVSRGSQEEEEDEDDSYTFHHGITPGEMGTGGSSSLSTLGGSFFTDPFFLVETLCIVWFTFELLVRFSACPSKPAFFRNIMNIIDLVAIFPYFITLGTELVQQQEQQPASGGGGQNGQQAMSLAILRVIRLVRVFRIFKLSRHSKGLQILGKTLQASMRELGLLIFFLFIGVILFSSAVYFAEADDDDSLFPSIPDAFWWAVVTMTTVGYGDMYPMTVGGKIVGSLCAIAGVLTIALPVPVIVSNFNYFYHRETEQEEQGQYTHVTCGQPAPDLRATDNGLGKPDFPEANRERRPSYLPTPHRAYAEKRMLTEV
smiles,measurement,setting,value
"CC[C@H](C)[C@H](NC(=O)[C@@H]1CSSC[C@@H]2NC(=O)[C@H](C(C)C)NC(=O)[C@H](CC(C)C)NC(=O)CNC(=O)[C@H](CC(C)C)NC(=O)CNC(=O)[C@@H]3CCCN3C(=O)[C@H](CC(C)C)NC(=O)CNC(=O)[C@@H]3CSSC[C@H](NC(=O)[C@H](C)NC(=O)CNC(=O)[C@H](CCCNC(=N)N)NC(=O)[C@H](CSSC[C@H](NC(=O)CN)C(=O)NCC(=O)N[C@@H](C(C)C)C(=O)N[C@@H](CC(=O)O)C(=O)NCC(=O)N[C@@H](CCC(N)=O)C(=O)N[C@@H](Cc4ccccc4)C(=O)N3)NC2=O)C(=O)N[C@@H](Cc2ccccc2)C(=O)N[C@@H](CC(C)C)C(=O)N[C@@H](C(C)C)C(=O)N1)C(=O)N[C@@H](Cc1ccc(O)cc1)C(=O)N[C@H](C(=O)N1CCC[C@H]1C(=O)O)[C@@H](C)CC [κO-SrVIA] (H-GCGVDGQFCGLPGLGLVCCRGACFLVCIYIP-OH; disulfide 2-19, 9-23, 18-27)",Hill coefficient,human Kv1.6,3.35 ± 0.44
same,effect on Kv1.6,human Kv1.6,no effect
same,inhibition at 4 µM,human Kv1.6,< 50%
same,inhibitory activity on the Kv10.1 channel,Kv10.1 potassium channel,the only fraction that had inhibitory activity on the Kv10.1 channel
same,inhibition at 0.4 µM,human Kv11.1 [1],10%
same,Hill coefficient,human Kv11.1 [2],2.85 ± 0.46
same,Hill coefficient,human Kv10.1,1.86 ± 0.25
same,inhibition at 0.4 µM,human Kv10.1; read-out: inhibitory activity,10%
